Experimental data taken from patent US6410029B1, “2-methoxyestradiol-induced apoptosis in cancer cells” (Board of Regents, The University of Texas System, priority 1996, dated 2002).

Key:
[1] = tested on: A549 cells (wild-type p53); assay: Growth assay, A549 cell line; type: cell-based, human
[2] = tested on: H460 cells (wild-type p53); assay: Growth assay, H460 cell line; type: cell-based, human
Description: (§1) Non-small cell lung cancer cell lines H460 (wild-type p53), H358 (p53 deleted), and […] (p53 mutant) were obtained from Drs. Adi Gazdar and John Minna. A549 (wild-type p53) was obtained from ATCC (Rockville, Md.). All cell lines were grown in RPMI 1640 media supplemented with 5% heat inactivated fetal bovine serum and maintained at 5% CO2. All the studies were done when the cells were 70% confluent.
(§2) For cell growth measurements, 5×10^4 cells were plated in each well of six well plates. Control and treated cells were trypsinized and counted using a hemocytotometer. Studies were performed in triplicate.
The inventors tested the effect of 2-MeOE2 treatment on the growth characteristics of four different human lung cancer cell lines differing in their p53 status: H3.58 (p53 deleted), H322 (p53 mutated), H460 (wild-type p53), A549 (wild-type p53).
The cells were treated with 5 μM of 2-MeOE2 or 16-epiestriol (another metabolite of estrogen) and growth of the cells was monitored for five days (FIG. 1).

[3] = tested on: H322 cells (p53 mutated); assay: Growth assay, H322 cell line; type: cell-based, human
Description: as §1, §2
(§3) The inventors tested the effect of 2-MeOE2 treatment on the growth characteristics of four different human lung cancer cell lines differing in their p53 status: H3.58 (p53 deleted), H322 (p53 mutated), H460 (wild-type p53), A549 (wild-type p53). […]

[4] = tested on: H358 cells (p53 deleted); assay: Growth assay, H358 cell line; type: cell-based, human
Description: as §1, §2, §3

[5] = tested on: wild-type p53 protein; assay: Western blot analysis of p53 protein, wild-type p53 lung cancer cell lines; type: cell-based, human
Description: (§4) Control and drug treated cells were washed in cold PBS, lysed in Laemmli's sample buffer, and subjected to western blot analysis as described previously (Mukhopadhyay et al., 1995). Blots were probed with Pab 1801 anti-p53 monoclonal antibody (Oncogene Sciences, Uniondale, N.Y.). The blot was further probed with anti-WAF1 monoclonal antibody (p21).
(§5) Blots were washed in Tris-buffered saline containing 0.1% Tween 20, incubated with horse radish peroxidase conjugated to secondary antibody and specific immunocomplex was detected by enhanced chemiluminescence technique according to the manufacturer's directions (Amersham, Arlington, Ill.). Blots were reprobed with anti-actin monoclonal antibody (Amersham) to show the equal protein loading.

[6] = tested on: mutated p53 protein; assay: Western blot analysis of p53 protein, H322 cell line; type: cell-based, human
Description: as §4, §5

[7] = tested on: p53 protein in normal bronchial epithelial cell lines; assay: Western blot analysis of p53 protein, normal bronchial epithelial cell lines; type: cell-based
Description: as §4, §5

[8] = tested on: p21WAF1/CIP1 protein; assay: Western blot with WAF1 monoclonal antibody (p21); type: cell-based, human
Description: as §4, §5

[9] = tested on: p53 DNA binding activity; assay: Electrophoretic mobility shift assay (EMSA), p53 DNA binding; type: cell-based, human; details: H460 cells, 5 μm for 48 h
Description: Electrophoretic mobility shift assays (EMSA) were performed using nuclear extract prepared from the H460 cell line. Nuclear extracts were prepared from untreated control and 2-MeOE2 treated cells. Cells were washed in ice cold PBS and scraped into 0.5 ml nuclei harvesting buffer (10 mM HEPES, pH 7.9; 10 mM KCl; 0.1 mM ETA, 1 mM dithiothretol (DTT), 0.1% NP-40; 0.5 mM phenyl methyl-sulfonyl fluoride; […]; 0.5 mg/ml benzamidine). After 30 min of incubation on ice, lysates were centrifuged for 1 min at 4° C. The nuclear pellet was resuspended in nuclear harvesting buffer containing 0.4 M NaCl and incubated on ice for 1 h. The nuclear extracts were microfuged at 12,000 rpm for 30 min at 4° C. and supernatant was stored at −70° C.
To perform electrophoretic mobility shift assays (EMSA), 10 μg of nuclear extract was mixed gently with 0.1 mg of poly (dl-dC) and 1 ng of ^32P-end labeled p53 consensus binding oligonucleotide in binding buffer (25 mM HEPES; pH 7.9; 0.5 mMEDTA; 0.5 mMDTT; 1% NP-40; 5% glycerol; 50 mM NaCl) in total reaction volume 20 μl. One microliter of (1 μg) p53 monoclonal antibody DO1 (Santa Cruz Biotechnology Inc., Calif.) was added to the DNA after binding and incubated for another 15 min to show the supershift. DNA-protein complexes were resolved in native 4.5% polyacrylamide gels. […]

[10] = tested on: lung cancer cell lines; assay: Cell cycle analysis by flow cytometry; type: cell-based, human; details: PI labeling, FACScan, 48 h treatment
Description: It has been shown that induction of p21 causes p53-mediated G1 arrest and induces apoptosis. […] The cells were labeled with PI and cell cycle was analyzed by FACScan.

[11] = tested on: H460 cells; assay: TUNEL assay (TdT staining); type: cell-based, human; details: H460 cells grown in chamber slides
Description: Terminal deoxynucleotidyl transferase mediated dUTP-biotin nick end labeling (TUNEL) assay was performed as described previously (Fujiwara et al., 1994). […] Cells were incubated in TdT buffer (30 mM Tris Hcl, pH 7.2; 140 mM cacodylate, 1 mM cobalt chloride) and incubated with biotinylated dUTP (Boehringer Mannheim, Indianapolis, Ind.) and 100 U/ml TdT enzyme (Bethesda Research Laboratory) for 1 h at 37° C. The avidin-biotin complex was detected using the Vectastain Elite kit (Vector Laboratory, Burlingame, Calif.), by the diaminobenzidine-H2O2 method.

[12] = tested on: normal bronchial epithelium; assay: Response of normal bronchial epithelium to 2-MeOE2 treatment; type: cell-based
[13] = tested on: normal human skin fibroblasts; details: even at a 100 μm concentration; cited from earlier work
[14] = tested on: endothelial cells; details: read-out: half-maximal inhibitory concentration (IC50); cited from earlier work
[15] = tested on: solid tumors; details: cited from earlier work
[16] = tested on: colchicine binding site of the tubulin filaments; details: MCF-7 cell line; cited from earlier work
[17] = tested on: endothelial cells; details: cited from earlier work
[18] = tested on: breast cancer cell line MCF-7; details: cited from earlier work
[19] = tested on: p53 mRNA; assay: Northern blot analysis of p53 mRNA; details: H460, 48 h after treatment
Description: Total RNA was isolated from the subconfluent cultures using the guanidinium thiocyanate method (Chomczynsky and Sacchi, 1987). Twenty micrograms of total RNA was electrophoresed in 1.4% agarose/MOPS formaldehyde gel, transferred to nylon membrane and hybridized to a radiolabeled p53 cDNA probe as described previously (Mukhopadyay and Roth, 1993).

[20] = tested on: A549 cells; assay: Apoptosis by FACS analysis, A549 cells
Description: (§6) Control and treated cells were collected by trypsinization, washed in PBS and fixed in 70% ethanol overnight. The next day cells were rehydrated in PBS for 30 min, centrifuged, and resuspended in PBS. For DNA analysis, propidium iodide (Sigma) was added at 50 μg/ml, and the cells were incubated in the presence of RNase at 15 μg/ml for 30 min at 37° C. Flow cytometric analysis was carried out in a fluorescence-activated cell sorter (Coulter Epics Elite).
(§7) Cells also were stained with biotinylated UTP for TUNEL assay to monitor the DNA fragmentation. H460 cells were grown in chamber slides and treated with the drugs and TdT staining was performed as described in Materials and Methods.

[21] = tested on: H460 cells; assay: Apoptosis by FACS analysis, H460 cells
Description: as §6, §7

[22] = tested on: H322 cells (p53 mutated); assay: Apoptosis by FACS analysis, H322 cells; details: mutated cell line, after 48 h of 5 μm treatment
Description: as §6, §7

[23] = dose response studies, after 48 h, lung cancer cell lines

For `COc1cc2c(cc1O)CC[C@@H]1[C@@H]2CC[C@]2(C)[C@@H](O)CC[C@@H]12` [2-MeOE2, 2-methoxyestradiol], the growth inhibitory effect ([1]; 5 μM, growth monitored for five days, A549 (wild-type p53)) was “significant growth inhibitory effect”, the “cell death during the growth assay” value ([1]; after 48 h, A549, crystal violet staining) was “significant increase in cell death” and the growth inhibitory effect ([2]; 5 μM, growth monitored for five days, H460 (wild-type p53)) was “significant growth inhibitory effect”. For the same compound, the “cell death during the growth assay” value ([2]; after 48 h, H460, crystal violet staining) was “significant increase in cell death”, the growth inhibitory effect ([3]; 5 μM, growth monitored for five days, H322 (p53 mutated)) was “virtually no growth inhibitory effect” and the “cell death during the growth assay” value ([3]; after 48 h, H322, crystal violet staining) was “only two dead cells”. The growth inhibitory effect ([4]; 5 μM, growth monitored for five days, H358 (p53 deleted)) was “virtually no growth inhibitory effect”, the “cell death during the growth assay” value ([4]; after 48 h, H358, crystal violet staining) was “only two dead cells” and the “concentration that stimulated p53 to a maximum level” value [5, 23] was 5 µM. For the same compound, the “increase of wild-type p53 protein levels” value ([5]; during 48 h of treatment, lung cancer cell lines carrying wild-type p53) was 6- to 8 fold, the “level of the mutated p53 protein” value [6] was “no increase” and the “level of p53 protein” value [7] was “no increase”. The “increase in p21 protein expression” value ([8]; A549 cell line) was 3-5 fold, the “increase in p21 protein expression” value ([8]; H460 cell line) was 3-5 fold and the “concentration that stimulated p21 to a maximum level” value [8, 23] was 5 µM. The “p53 DNA binding activity in nuclear extract vs untreated control” value [9] was “three-fold increase”, the “G1 arrest (cell cycle analysis)” value [10] was “no evidence of G1 arrest” and the “DNA fragmentation (TUNEL, TdT staining)” value [11] was “many apoptotic bodies”. The “changes in response to treatment (p53 increase, apoptosis)” value [12] was “did not show the observed changes”, the “effect on normal human skin fibroblasts” value [13] was “no effect” and the IC50 [14] was 150 nM. For the same compound, the “general cytotoxicity in vivo” value ([15]; in vivo studies) was “not associated with general cytotoxicity”, the “capillary formation in solid tumors” value ([15]; oral administration, mice) was “potent inhibition” and the “growth of solid tumors” value ([15]; oral administration, mice) was “reduced growth”. The binding to tubulin [16] was “bind to the colchicine binding site of the tubulin filaments”, the angiogenesis in vitro [17] was “inhibits” and the endothelial cell migration ([17]; in vitro) was “inhibits”. For the same compound, the cytotoxic effect [18] was “cytotoxic effect”, the “p53 mRNA levels” value [19] was “no change” and the “peak representing apoptotic cells (PI, FACScan)” value ([20]; A549 cell line) was “A peak representing apoptotic cells appeared”. For the same compound, the “apoptosis (DNA strand breaks, UTP-labeled biotin / FITC-avidin)” value ([20]; A549 cells) was “had undergone apoptosis”, the apoptotic cell death ([20]; A549 cells, after 48 h of 5 μm treatment, FACS analysis) was about 48% and the “peak representing apoptotic cells (PI, FACScan)” value ([21]; H460 cell line) was “A peak representing apoptotic cells appeared”. The “apoptosis (DNA strand breaks, UTP-labeled biotin / FITC-avidin)” value ([21]; H460 cells) was “had undergone apoptosis” and the apoptotic cell death [22] was “no effect”.

For `C[C@]12CC[C@@H]3c4ccc(O)cc4CC[C@H]3[C@@H]1C[C@H](O)[C@@H]2O` [epistriol, 16-epiestriol, reference compound], the “G1 arrest (cell cycle analysis)” value [10] was “no evidence of G1 arrest” and the “DNA fragmentation (TUNEL, TdT staining)” value [11] was “little DNA fragmentation”.
